Data from patent US8304452B2, “Radical scavenger and active oxygen eliminating agent” (InBiotex Inc., priority 2005, dated 2012).

Experiments:
human LDL [1] = assay: Lipid peroxide-suppressing action: CuSO4-induced LDL oxidation, TBARS assay (Example 1); assay type: biochemical; conditions: for Amount of TBARS: 0.2 mg/mL LDL + 5 μM CuSO4, 37° C., 3 hours, mean, n=2
Procedure: As an action of capturing free group (free radical-scavenging action), the effect of N-β-alanyl-5-S-glutathionyl-3,4-dihydroxyphenylalanine (5-S-GAD) on LDL oxidation was examined. As controls, dopamine and Carnosine (under trade name; N-acetylcarnosine as the ingredient name) used as eye drops for cataract were used. LDL was prepared by a fractionation and centrifugation method. A fraction at a specific gravity of 1.019 to 1.063 g/mL in serum was defined as human LDL. 5 μM CuSO4, 5-S-GAD (3 to 100 μM) and N-acetyl-carnosine (100 μM to 10 mM) or L-carnosine (10 μM to 10 mM) were added to 0.2 mg/mL LDL, for incubation at 37° C. for 3 hours. After termination of the incubation, TBARS (a substance reactive with thiobarbituric acid) was assayed. Although the TBA reaction is a non-specific reaction, the reaction is used for a method of assaying various lipid peroxide products including malone dialdehyde. An experiment of peroxidation with copper sulfate was done twice (N=2). An aqueous solution containing 3.75 mg/mL thiobarbituric acid (TBA), 150 mg/mL trichloroacetic acid (TCA) and 0.25 N hydrochloric acid (HCl) was prepared as the TBA reagent, while tetramethoxypropane was used to prepare standard solutions (2, 5, 10, 20, 40 μM). 100 μL each of an LDL sample or a standard solution was added together with 200 μL of the TBA reagent into an Eppendorf tube (1.5 mL), which was then sealed with a cap for thorough mixing. After heating at 95° C. for 15 minutes, the resulting mixture was cooled in water and centrifuged at 3000 rpm for 5 minutes. The supernatant was assayed of the absorbance (535 nm). Based on the absorbance of the standard solutions, a standard curve was prepared. Based on the standard curve, the amount of TBARS in the LDL sample was calculated (in nmol/mg LDL protein) (mean, n=2, see Table 1 and FIG. 1).

[2] = DPPH-scavenging action (Example 2); assay type: biochemical; conditions: for Radical-scavenging ratio (%): DPPH, ambient temperature, 5 minutes, mean, n=2
Procedure: DPPH (1,1-diphenyl-2-picrylhydrazyl) is one of nitrogen radicals and is a very stable radical, which is commercially available as a black-purple crystal (Wako Pure Chemical, Co., Ltd., etc.). N-β-Alanyl-5-S-glutathionyl-3,4-dihydroxyphenylalanine (5-S-GAD) (see Table 2) or Carnosine (under trade name) (see Table 3) was added to an ethanol solution of […] DPPH radical, for reaction at ambient temperature for 5 minutes (see the following reaction scheme). Instead of the test reagent, distilled water was added to the ethanol solution, which was used as a background. The DPPH absorbance at 517 nm was assayed, to calculate the scavenging ratio (%) of the DPPH radical according to the following equation. The scavenging ratio was defined as radical scavenger activity (mean, n=2; see Table 2, Table 3 and FIG. 2).
Radical-scavenging ratio (%)=[assay value of background (mean)−assay value of solution at each concentration]/background assay value (mean)]×100

[3] = DPPH-scavenging activity versus N-acetyl-L-carnosine (Example 6); assay type: biochemical; conditions: 60 μM DPPH, 5 minutes; FIG. 6
Procedure: 5-S-GAD or N-acetyl-L-carnosine was added to an ethanol solution of 60 μM DPPH for reaction at ambient temperature for 5 minutes. Subsequently, the concentration of the DPPH radical was measured via the absorbance at 517 nm. The DPPH radical concentration in a reaction solution to which distilled water instead of the test substance solution was added, was used as a control. In the same manner as in Example 2, the scavenging ratio (%) of the DPPH radical was calculated and defined as the radical-scavenging activity (see FIG. 6).

[4] = Superoxide anion-scavenging activity, chemiluminescence, versus N-acetyl-L-carnosine (Example 7); assay type: biochemical; conditions: lucigenin chemiluminescence; FIG. 7
Procedure: In a 50 mM carbonate buffer (pH 10) containing 200 μM lucigenin, 100 μM xanthine and 1 mU/mL xanthine oxidase reacted together. The chemiluminescence level depending on the generated superoxide anion (O^2−) was assayed for 10 minutes. The area under the curve indicating the total chemiluminescence over the 10 minutes was calculated. A group to which PBS(−) instead of the test substance solution was added at the same amount as that of the solution, was defined as a control. In the same manner as in Example 3, the effect of 5-S-GAD or N-acetyl-L-carnosine added on the increase of chemiluminescence was examined. The suppressive activity thereof was defined as superoxide anion-scavenging activity (%) (see FIG. 7).

[5] = system: chicken egg chorioallantois; assay: Vascularization-suppressing action, chicken egg chorioallantois (Example 10); assay type: in vivo; conditions: 10 μL in 1% methylcellulose inside ring, 37° C., 48 hours; FIG. 10
Procedure: A ring of a 3-mm diameter was placed on a chicken egg chorioallantois on day 5 after oviposition. 10 μL of the test substance diluted with 1% methylcellulose was added inside the ring. After incubation at 37° C. for 48 hours, fat emulsion was injected into the chorioallantois. A part from which the ring was displaced was photographed. Using an image analysis software (Kurabo Industries, Ltd.), the vascular area was measured.

human LDL [6] = assay: Effect on the oxidation of LDL in human blood, TBARS (Example 11); assay type: biochemical; conditions: LDL + 5 μM CuSO4, TBARS; FIG. 11
Procedure: LDL was prepared by a fractionation and centrifugation method. A fraction at a specific gravity of 1.019 to 1.063 g/mL in serum was defined as human LDL. 5 μM CuSO4, 5-S-GAD (3 to 100 μM) and N-acetyl-carnosine (100 μM to 10 mM) or L-carnosine (10 μM to 10 mM) were added to 0.2 mg/mL LDL, for incubation at 37° C. for 3 hours. After termination of the incubation, TEARS (a substance reactive with thiobarbituric acid) was assayed. Although the TBA reaction is a non-specific reaction, the reaction is used for a method of assaying various lipid peroxide products including malone dialdehyde. An experiment of peroxidation with copper sulfate was done twice (N=2).
An aqueous solution containing 3.75 mg/mL thiobarbituric acid (TBA), 150 mg/mL trichloroacetic acid (TCA) and 0.25 N hydrochloric acid (HCl) was prepared as the TBA reagent, while standard solutions (2, 5, 10, 20, 40 μM) of tetramethoxypropane were prepared. 100 μL each of an LDL sample or a standard solution was added together with 200 μL of the TBA reagent into an Eppendorf tube (1.5 mL), which was then sealed with a cap for thorough mixing. […] The supernatant was assayed of the absorbance (535 nm). Based on the absorbance of the standard solution, a standard curve was prepared. Based on the standard curve, the amount of TBARS in the LDL sample was calculated (in nmol/mg LDL protein) (see FIG. 11).

NCCC(=O)N[C@@H](Cc1cc(O)c(O)c(SC[C@H](NC(=O)CC[C@H](N)C(=O)O)C(=O)NCC(=O)O)c1)C(=O)O [5-S-GAD, N-β-alanyl-5-S-glutathionyl-3,4-dihydroxyphenylalanine]
Amount of TBARS (human LDL [1]; 10 μM added): 85.683 nmol/mg LDL protein
Amount of TBARS (human LDL [1]; 30 μM added): 4.290 nmol/mg LDL protein
Amount of TBARS (human LDL [1]; 100 μM added): 2.649 nmol/mg LDL protein
anti-oxidation action, level relative to Carnosine (under trade name) (human LDL [1]; LDL oxidation, TBARS): 10 fold
anti-oxidation action, level relative to dopamine (human LDL [1]; LDL oxidation, TBARS): the same level as that of dopamine
Radical-scavenging ratio (%) ([2]; 1 μM added): 3.918%
Radical-scavenging ratio (%) ([2]; 3 μM added): 13.891%
Radical-scavenging ratio (%) ([2]; 10 μM added): 73.762%
Radical-scavenging ratio (%) ([2]; 30 μM added): 93.487%
action for scavenging the DPPH radical (in words) ([2]; summary of Table 2, Table 3 and FIG. 2): strong actions for scavenging the DPPH radical
DPPH radical-scavenging action compared with N-acetyl-L-carnosine (in words) [3]: excellent DPPH radical-scavenging action compared with N-acetyl-L-carnosine
superoxide anion (O^2−)-scavenging action compared with N-acetyl-L-carnosine (in words) [4]: excellent superoxide anion (O^2−)-scavenging action compared with N-acetyl-L-carnosine
suppression of vascularization (vascular area) [5]: suppressed vascularization significantly
anti-oxidation action compared with N-acetyl-carnosine and L-carnosine (in words) (human LDL [6]): excellent anti-oxidation action compared with N-acetyl-carnosine and L-carnosine
